In general, IC50 refers to the concentration needed to halve the response being measured. Read a low IC50 as greater potency in that assay.

The test system of one assay is mouse locomotor activity. In words: Locomotor activity of mice, drug alone. To be noted: for percent suppression of locomotion: alone; for effect on spontaneous exploratory activity (in words): mice. It is filed as in vivo, Male Swiss-Webster mice. The protocol:
Suspensions are ultrasonicated for 3 minutes.

Another assay has as its target T1, adenosine A1 receptor (Rattus norvegicus, UniProt P25099).
T1 construct: from tissue; host or cells: rat whole brain membranes
T1 sequence (P25099 1-326): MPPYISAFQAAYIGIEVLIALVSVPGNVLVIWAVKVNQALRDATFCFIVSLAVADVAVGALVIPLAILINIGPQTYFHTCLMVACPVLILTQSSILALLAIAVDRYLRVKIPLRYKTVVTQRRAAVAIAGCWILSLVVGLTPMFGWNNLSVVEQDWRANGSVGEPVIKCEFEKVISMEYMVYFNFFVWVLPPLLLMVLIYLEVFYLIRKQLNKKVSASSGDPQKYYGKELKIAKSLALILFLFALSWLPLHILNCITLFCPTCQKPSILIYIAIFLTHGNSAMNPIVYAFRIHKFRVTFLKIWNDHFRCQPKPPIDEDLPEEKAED
In words: [3H]-N6-cyclohexyladenosine binding to rat whole brain membranes (A1 affinity, RBA-1).

In another assay the target is T2, adenosine A2 receptor (Rattus norvegicus, UniProt P30543).
T2 construct: from tissue; host or cells: rat striatal membranes
T2 sequence (P30543 whole entry): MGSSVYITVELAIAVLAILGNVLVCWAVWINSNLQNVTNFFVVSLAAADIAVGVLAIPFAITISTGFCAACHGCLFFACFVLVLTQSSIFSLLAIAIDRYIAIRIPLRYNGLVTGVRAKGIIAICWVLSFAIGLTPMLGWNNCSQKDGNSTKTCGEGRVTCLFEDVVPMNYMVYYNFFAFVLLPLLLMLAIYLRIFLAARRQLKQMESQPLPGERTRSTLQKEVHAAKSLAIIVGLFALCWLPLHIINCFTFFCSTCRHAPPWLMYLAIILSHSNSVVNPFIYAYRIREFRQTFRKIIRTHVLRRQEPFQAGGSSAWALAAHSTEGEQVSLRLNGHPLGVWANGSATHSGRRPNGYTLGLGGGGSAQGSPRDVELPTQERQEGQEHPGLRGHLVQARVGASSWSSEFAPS
In words: [3H]-NECA binding to rat striatal membranes (A2 affinity, RBA-2).

In the case of `OC[C@H]1O[C@@H](n2cnc3c(NC4CCCC4)ncnc32)[C@H](O)[C@@H]1O` [CPA, N^6 -cyclopentyladenosine], the “percent suppression of locomotion” value in the assay on mouse locomotor activity (CPA 2 mg/kg IP) was 94%. In the assay with mouse locomotor activity, the “effect on spontaneous exploratory activity (in words)” value is given as “inhibition of spontaneous exploratory activity”.

Take `Nc1nc(Nc2ccccc2)nc2c1ncn2[C@@H]1O[C@H](CO)[C@@H](O)[C@H]1O` [CV-1808, 2-anilinoadenosine]: the “percent suppression of locomotion” value in the assay with mouse locomotor activity (CV-1808 8 mg/kg IP) is listed as 83%. In the assay on mouse locomotor activity, the “effect on spontaneous exploratory activity (in words)” value is given as “inhibition of spontaneous exploratory activity”.

Consider `CCCn1c(=O)c2[nH]c(C3CCSC3)nc2n(CCC)c1=O` (stereo not shown) [Example 1, 1,3-Dipropyl-8-(3-tetrahydrothienyl)xanthine], for which the concentration for half-maximal inhibition (IC50) came out at 2 nM at adenosine A1 receptor and 622 nM at adenosine A2 receptor.

As for `CCCn1c(=O)c2[nH]c(C3CCCO3)nc2n(CCC)c1=O` (stereo not shown) [Example 2, 1,3-Dipropyl-8-(2-tetrahydrofuranyl)xanthine], the values for the IC50 on adenosine A1 receptor and on adenosine A2 receptor were 20 nM and 3100 nM, respectively.

Consider `CCCn1c(=O)c2[nH]c(C3CCOC3)nc2n(CCC)c1=O` (stereo not shown) [Example 3, 1,3-Dipropyl-8-(3-tetrahydrofuranyl)xanthine], for which the figures for the IC50 at adenosine A1 receptor and on adenosine A2 receptor were 28 nM and 4650 nM, respectively.

Take `Cn1c(=O)c2nc(C3CCOC3)[nH]c2n(C)c1=O` (stereo not shown) [Example 4]: the IC50 stood at 400 nM at adenosine A1 receptor and 2000 nM at adenosine A2 receptor.

`CCCn1c(=O)c2[nH]c(C3CCCS3)nc2n(CCC)c1=O` (stereo not shown) [Example 5, 1,3-Dipropyl-8-(2-tetrahydrothienyl)xanthine] displayed an IC50 on adenosine A1 receptor of 88 nM. This counts as double-digit nanomolar.

The record behind these values is patent US4755517A, “Derivatives of xanthine, pharmaceutical compositions and methods of use therefor” (Warner-Lambert Company, priority 1986, dated 1988).
